In publication PMC6804140, “Peptidomic Approach for the Identification of Peptides with Potential Antioxidant and Anti-Hyperthensive Effects Derived From Asparagus By-Products” (Molecules, 2019):
Ends that are not written are not given here.

Target: T1, ACE from rabbit lung (Oryctolagus cuniculus, UniProt P12822)
T1 construct: ACE from rabbit lung; purchased Sigma-Aldrich (St. Louis, MO, USA); host or cells: rabbit lung tissue
T1 sequence (P12822 34-1310): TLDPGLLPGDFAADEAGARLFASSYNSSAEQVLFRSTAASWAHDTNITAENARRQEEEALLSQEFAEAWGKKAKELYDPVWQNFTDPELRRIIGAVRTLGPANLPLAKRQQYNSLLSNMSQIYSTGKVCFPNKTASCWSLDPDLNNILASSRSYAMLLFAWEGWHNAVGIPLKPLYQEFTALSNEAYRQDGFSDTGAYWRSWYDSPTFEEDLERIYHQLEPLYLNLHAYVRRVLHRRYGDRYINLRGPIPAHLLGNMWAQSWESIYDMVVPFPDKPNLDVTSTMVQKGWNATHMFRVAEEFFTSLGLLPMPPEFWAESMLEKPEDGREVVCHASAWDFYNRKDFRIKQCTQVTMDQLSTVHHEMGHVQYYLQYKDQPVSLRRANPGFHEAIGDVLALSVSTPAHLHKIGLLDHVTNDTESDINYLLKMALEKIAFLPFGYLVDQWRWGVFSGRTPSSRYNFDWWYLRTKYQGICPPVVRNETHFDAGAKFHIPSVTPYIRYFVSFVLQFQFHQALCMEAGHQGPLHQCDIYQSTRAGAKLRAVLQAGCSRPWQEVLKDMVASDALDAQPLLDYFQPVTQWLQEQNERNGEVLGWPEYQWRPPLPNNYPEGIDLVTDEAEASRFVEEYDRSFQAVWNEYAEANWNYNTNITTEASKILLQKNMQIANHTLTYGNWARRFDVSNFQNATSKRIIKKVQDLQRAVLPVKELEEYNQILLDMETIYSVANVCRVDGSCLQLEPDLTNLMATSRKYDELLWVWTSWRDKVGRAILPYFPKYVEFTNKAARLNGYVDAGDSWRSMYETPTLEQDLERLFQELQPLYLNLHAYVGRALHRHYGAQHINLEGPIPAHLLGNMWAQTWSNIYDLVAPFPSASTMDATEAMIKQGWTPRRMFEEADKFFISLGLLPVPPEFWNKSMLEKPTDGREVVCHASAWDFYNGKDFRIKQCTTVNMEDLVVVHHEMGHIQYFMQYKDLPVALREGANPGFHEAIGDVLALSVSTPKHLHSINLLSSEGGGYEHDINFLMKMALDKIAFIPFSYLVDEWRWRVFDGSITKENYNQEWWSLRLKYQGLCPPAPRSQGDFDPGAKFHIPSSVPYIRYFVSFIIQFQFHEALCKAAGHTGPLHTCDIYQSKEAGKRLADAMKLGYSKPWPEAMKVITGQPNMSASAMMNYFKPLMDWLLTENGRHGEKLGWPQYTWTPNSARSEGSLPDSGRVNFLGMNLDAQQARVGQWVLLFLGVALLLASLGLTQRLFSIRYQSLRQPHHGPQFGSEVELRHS
Assay: ACE-inhibitory assay
Format: biochemical
Conditions: synthetic peptide (90%); pH 8.3, 37 °C, 90 min, 228 nm; fit Origin 9.0; ± SD in Table 1; read-out: EC50 value, ACE inhibition assay

Row | Substance | EC50
1 | ASQSIWLPGWL [ASQSIWLPGWL] | 4.02 ± 1.79 µM
2 | PDWFLLL [PDWFLLL] | 5.74 ± 2.35 µM
